Patent US20140011773A1, “Pro-drug Compounds” (Proximagen Limited, priority 2012, published 2014)
Where a name gives a salt, the structure may show the parent alone. Read-outs that look alike come from different tables or passages of the source.

Key:
high K+ evoked CSD [1] = details: cats; cited from earlier work
high K+ evoked CSD [2] = details: rats; cited from earlier work
[3] = tested on: unique stereo-selective site in rat brains; details: rat brain; cited from earlier work
[4] = tested on: unique stereo-selective site in human brains; details: human brain; cited from earlier work
[5] = Pharmacokinetics: plasma levels after intravenous dosing to rats; format: in vivo; details: male, Sprague Dawley, rat, 0.95 mg/kg IV, read-out: Plasma level of Example 2
Experimental: (§1) Example prodrugs were dosed either intravenously or orally to fasted male Sprague Dawley rats. The rats underwent surgery for jugular vein cannulation 48 hrs prior to dosing. Following dosing, 0.25 mL blood samples were taken via the cannulae at 0, 5, 10, 20, 30, 45, 60, 120, 240 & 360 minutes in EDTA coated tubes. Tubes were spun at 13,000 rpm for 4 minutes and 100 ul of supernatant taken immediately and stored at −80° C. prior to analysis. Plasma samples were analysed by LC-MS/MS following extraction by protein precipitation, and levels of parent prodrug and tonabersat were measured by MRM (Multiple Reaction Monitoring) analysis against an extracted calibration curve of plasma samples spiked with the Example prodrug and tonabersat.
Example 2 was dosed according to this protocol at 0.95 mg/kg IV. […] Plasma levels of tonabersat were determined to be 130 ng/mL at 5 min and 115 ng/mL at 6 hrs clearly showing conversion of the prodrug to tonabersat over this timecourse following intravenous dosing.

[6] = Pharmacokinetics: plasma levels after oral dosing to rats; format: in vivo; details: male, Sprague Dawley, 6.1 mg/kg, rat, 6.10 mg/kg PO, read-out: Plasma level of Example 2
Experimental: as §1
Example 2 was dosed according to this protocol at 6.10 mg/kg PO. […] Plasma levels of tonabersat were determined to be 63 ng/mL at 5 min and 900 ng/mL at 6 hrs clearly showing conversion of the prodrug to tonabersat over this timecourse following oral dosing.

Row | Structure (SMILES) | inhibition of high K+ evoked CSD (high K+ evoked CSD [1]) | inhibition of high K+ evoked CSD (high K+ evoked CSD [2]) | binding affinity [3] | binding affinity [4] | concentration at 5 min ([5]; at 5 min) [ng/mL] | concentration at 6 h ([5]; at 6 hrs) [ng/mL] | concentration at 5 min ([6]; at 5 min) [ng/mL] | concentration at 6 h ([6]; at 6 hrs) [ng/mL]
1 | CC(=O)c1ccc2c(c1)[C@H](NC(=O)c1ccc(F)c(Cl)c1)[C@H](O)C(C)(C)O2 [Tonabersat] | inhibits high K+ evoked CSD | inhibits high K+ evoked CSD | binds selectively and with high affinity | binds selectively and with high affinity | – | – | – | –
2 | CC(=O)c1ccc2c(c1)[C@H](NC(=O)c1ccc(F)c(Cl)c1)[C@H](OC(=O)CN(C)C)C(C)(C)O2 [Example 2, (3S,4S)-6-Acetyl-4-[(3-chloro-4-fluorobenzene)amido]-2,2-dimethyl-3,4-dihydro-2H-1-benzopyran-3-yl 2-(dimethylamino)acetate hydrochloride] | – | – | – | – | 730 | < 5 | 38 | < 5
